Results: ChEMBL document CHEMBL1221329, “Identification of a novel NR2B-selective NMDA receptor antagonist using a virtual screening approach” (Bioorg Med Chem Lett, 2010)

What was measured:
[1] = target: T1, Glutamate NMDA receptor; GRIN1/GRIN2B (Homo sapiens, UniProt Q05586+Q13224); assay: Antagonist activity at wild type NR1/NR2B receptor expressed in Xenopus oocytes assessed as ratio of residual current induced by agonist in presence of compound to residual current induced by agonist alone at 10 uM by two-electrode voltage-clamp method; format: functional, cell-based; settings: Oocyte
[2] = Antagonist activity at NR1/NR2B NTD truncated mutant receptor expressed in Xenopus oocytes assessed as ratio of residual current induced by agonist in presence of compound to residual current induced by agonist alone at 10 uM by two-electrode voltage-clamp method; format: functional, Oocyte
[3] = target: T1, Glutamate NMDA receptor; GRIN1/GRIN2B; assay: Ratio of compound IC50 to ifenprodil IC50 for wild type NR1/NR2B receptor by radioligand binding assay; format: protein-complex assay
[4] = target: T1, Glutamate NMDA receptor; GRIN1/GRIN2B; assay: Antagonist activity at wild type NR1/NR2B receptor expressed in Xenopus oocytes assessed as inhibition of agonist-induced current amplitude by two-electrode voltage-clamp method; format: functional, cell-based, Oocyte
[5] = target: T2, Glutamate NMDA receptor; GRIN1/GRIN2A (Homo sapiens) (UniProt Q05586+Q12879); assay: Antagonist activity at wild type NR1/NR2A receptor expressed in Xenopus oocytes assessed as ratio of residual current induced by agonist in presence of compound to residual current induced by agonist alone at 10 uM by two-electrode voltage-clamp method; format: functional, cell-based; settings: Oocyte
[6] = Antagonist activity at NR1/NR2B NTD truncated mutant receptor expressed in Xenopus oocytes assessed as inhibition of agonist-induced current amplitude at 10 uM by two-electrode voltage-clamp method; format: functional; settings: Xenopus laevis, Oocyte
[7] = target: T2, Glutamate NMDA receptor; GRIN1/GRIN2A (Homo sapiens); assay: Antagonist activity at wild type NR1/NR2A receptor expressed in Xenopus oocytes assessed as inhibition of agonist-induced current amplitude at 10 uM by two-electrode voltage-clamp method; format: functional, cell-based; settings: Oocyte
[8] = target: T1, Glutamate NMDA receptor; GRIN1/GRIN2B; assay: Ratio of compound IC50 to ifenprodil IC50 for wild type NR1/NR2B receptor expressed in Xenopus oocytes; format: cell-based; settings: Oocyte
[9] = target: T1, Glutamate NMDA receptor; GRIN1/GRIN2B; assay: Antagonist activity at wild type NR1/NR2B receptor expressed in Xenopus oocytes assessed as inhibition of agonist-induced current amplitude at 10 uM by two-electrode voltage-clamp method; format: functional, cell-based; settings: Oocyte

SMILES	Ratio [1]	Ratio [2]	Ratio IC50 [3]	Ratio [5]	also measured
O=C1N=C(N2CCN(Cc3ccccc3)CC2)S/C1=C\c1ccccc1O	0.96	0.96			
O=C1CNC(=O)N1CCCCCN1CCC(Cc2ccccc2)CC1			440		
Nc1ccc(C#CCCN2CCC(Cc3ccccc3)CC2)cc1			4		
O=C1N=C(N2CCN(Cc3ccccc3)CC2)S/C1=C\c1ccc(O)cc1O	0.18	0.92		0.92	IC50 [4]: 1650 nM; inhibition at 10 µM [6]: 6%; inhibition [7]: 6%
O=C1N=C(N2CCN(Cc3ccccc3)CC2)S/C1=C\c1ccc(O)cc1	0.22	0.96		0.94	IC50 [4]: 2700 nM; Ratio IC50 [8]: 10; inhibition [9]: 0.92%; inhibition at 10 µM [6]: 4%; inhibition [7]: 4%
Cc1nnc(SCCCN2CCC(Cc3ccccc3)CC2)s1			58		
O=C1N=C(N2CCN(Cc3ccccc3)CC2)S/C1=C\c1ccccc1	0.95	0.97			
CCN(CC)CCCOC(=O)c1ccc(O)cc1O	0.94	0.97		0.97	inhibition [9]: < 20%
O=C1N=C(N2CCN(c3ccccc3)CC2)S/C1=C/c1ccc(O)cc1	0.74	0.96			
C(#Cc1ccccc1)CCN1CCC(Cc2ccccc2)CC1			43		
COc1cc(/C=C2\SC(N3CCN(c4ccc(C)cc4)CC3)=NC2=O)ccc1O	0.95	0.97			
O=C1N=C(N2CCN(c3cccc(Cl)c3)CC2)S/C1=C\c1ccc(O)cc1	0.94	0.92		0.9	
O=C1N=C(N2CCN(c3ccc(F)cc3)CC2)S/C1=C\c1ccc(O)cc1	0.75	0.96			IC50 [4]: 13000 nM
COc1cc(/C=C2/SC(N3CCN(Cc4ccccc4)CC3)=NC2=O)ccc1O	0.61	0.97			IC50 [4]: 11000 nM
Oc1ccc2[nH]c3c(c2c1)CN(CCCCc1ccccc1)CC3			0.45		
Oc1nc2cc(C#CCN3CCC(=Cc4ccc(F)cc4)CC3)ccc2[nH]1			2.5		
O=C1N=C(N2CCN(Cc3ccccc3)CC2)S/C1=C/c1ccc(O)cc1	0.15	0.96		0.9	IC50 [4]: 1800 nM; inhibition at 10 µM [6]: 6%; inhibition [7]: 6%
O=C(CN1CCc2[nH]c3ccccc3c2C1)c1c[nH]c2ccccc12	0.9	0.94		0.96	inhibition [9]: < 20%
O=c1[nH]c2ncc(C#CCN3CCC(Cc4ccccc4)CC3)cc2o1			0.45		

SMILES	Ratio [1]	Ratio [2]	Ratio IC50 [3]	Ratio [5]	also measured
O=c1[nH]c2cc([S+]([O-])CCN3CCC(Cc4ccc(F)cc4)CC3)ccc2o1 (stereo unspecified)			0.03		
C(#Cc1ccc2[nH]ccc2c1)CN1CCC(=Cc2ccccc2)CC1			140		
COc1cc(/C=C2\SC(N3CCN(c4ccc(C)c(Cl)c4)CC3)=NC2=O)ccc1O	0.9	0.97			
CCN1CCN(C2=NC(=O)/C(=C/c3ccc(O)cc3)S2)CC1	0.93	0.96			
Oc1ccc(CCCCN2CCc3c([nH]c4ccccc34)C2)cc1			5		
COc1cc(/C=C2\SC(Nc3cccc(Cl)c3Cl)=NC2=O)ccc1O	0.925	0.96		0.97	inhibition [9]: < 20%
Nc1ccc(N2CCN(Cc3ccccc3Cl)CC2)cc1	0.98	0.98		0.97	inhibition [9]: < 20%
N=C1/C(=C/c2ccc(O)cc2)C(=O)N=C2SC(Cc3ccc(Cl)cc3)=NN12	0.9	0.97		0.99	inhibition [9]: < 20%
Oc1nc2cc(C#CCN3CCC(Cc4ccccc4)CC3)ccc2[nH]1			0.048		
CC(=O)Nc1ccc2c(c1)CN(Cc1ccc(Cl)cc1)CO2	0.83	0.88		0.77	inhibition [9]: < 20%
COc1cc(CN2CCN(Cc3cccc(C)c3)CC2)cc(OC)c1O	0.96	0.97		0.98	inhibition [9]: < 20%
Oc1nc2cc(C#CCN3CCC(Cc4ccc(F)cc4)CC3)c[nH]c-2n1			0.03		
Cn1c(O)nc2cc(C#CCN3CCC(Cc4ccccc4)CC3)ccc21			560		
C[C@@H](CN1CCC(Cc2ccccc2)CC1)[C@@H](O)c1ccc(O)cc1			0.3		
COc1cc(/C=C2\SC(N3CCN(c4cccc(C)c4)CC3)=NC2=O)ccc1O	0.95	0.96			
O=C1N=C(N2CCN(c3ccccc3)CC2)S/C1=C\c1ccc(O)cc1	0.75	0.96		0.88	inhibition at 10 µM [6]: 25%; inhibition [7]: 25%
CC(=O)Nc1ccc(N2C(=O)C[C@@H](N3CCc4[nH]c5ccccc5c4C3)C2=O)cc1	0.97	0.98		0.98	inhibition [9]: < 20%
Oc1ccc2c(c1)OC[C@@H](N1CCC(O)(c3ccccc3)CC1)[C@H]2O			11		
O=C1CNC(=O)N1CCCN1CCC(Cc2ccccc2)CC1			250		
